Assay results taken from patent US4812447A, “Method for the treatment of nervous system degeneration” (City of Hope, priority 1986, dated 1989).
Counter-ions that a name gives are not always drawn.

Legend:
mice [1] = conditions: cited from earlier work
[2] = test system: human complement system, C4 component; conditions: Koo, et al., Klin. Wochnschr, 61, 715 (1983); cited from earlier work
NF^+ neurons = test: Example 3: fetal mouse brain cell culture, neurofilament (NF) immunofluorescence of neurons; type: cell-based, Swiss mouse; conditions: for survival of neurons, outgrowth of neuritic processes, establishment of connections between neurons: low concentrations, explants of fetal mouse brain in culture; for optimal concentration for effects on neurons: numbers, processes, connections and staining of NF^+ neurons
Method: (§1) Cultures were prepared from finely chopped, mechanically dissociated brains from 14-day old Swiss mouse embryos. Cells were plated at a density of 3×10^5 cells/cm^2 on poly-D-lysine coated glass cover slips and maintained at 37° C. in an atmosphere of 5% CO2, 80% humidity in Dulbecco-modified ME medium supplemented with 10% fetal calf serum and containing penicillin. The medium was first changed at 5 days of culture, at which time DHEA and DHEAS was added in concentrations ranging from 10^-4 M to 10^-8 M to the experimental cultures, while the control cultures received only normal medium. The supplemented and control media were changed at 7 days and on the 9th day the cultures were fixed and immunostained by the indirect immunofluorescent method of Coons with rabbit antisera to neurofilament protein, specific for neurons, and to glial fibrillary acidic protein, which is specific for glial cells. Neuronal and glial cells identified by the above procedures subsequently will be designated as NF^+ and GFAP^+ cells.
(§2) Briefly, cultures were fixed by successive incubation at room temperature with 3.7% formaldehyde and 3.7% formaldehyde containing 0.2% Triton X-100, 10 min each, and incubation at 4° C. with acetone 50%, with acetone 100% and acetone 50%--2 min each. Incubation with the above-mentioned sera anti-cell markers appropriately diluted (1/20-1/30) was carried out at room temperature for 30 min.

[3] = oral; cited from earlier work
[4] = test system: astrocytes (GFAP^+ cells); test: Example 3: fetal mouse brain cell culture, GFAP immunofluorescence of astrocytes / glial cells; type: cell-based, Swiss mouse; conditions: for brilliance of astrocyte staining (GFAP per unit cell surface) / extent of astrocyte fiber extension / numbers of astrocytes: vs untreated cultures, GFAP staining; for development and maturation of glial processes: low concentrations, explants of fetal mouse brain in culture
Method: as §1, §2

rats = conditions: orally; cited from earlier work
mice [5] = conditions: orally; cited from earlier work
SDAT patients = test: Example 1: treatment of SDAT patients over 75 years old with DHEAS; type: in vivo, human; conditions: 500 mg three times per day for two months
Method: Four patients over 75 years old, suffering from SDAT and having well-documented, progressive SDAT symptoms, are selected. Two of the patients are given 500 mg of DHEAS three times per day for two months. The other two are given a placebo.

| Compound | incidence of breast cancer (mice [1]) | obesity (mice [1]) | effect on human complement system, in particular C4 component [2] | survival of neurons, outgrowth of neuritic processes, establishment of connections between neurons (NF^+ neurons) | optimal concentration for effects on neurons (NF^+ neurons) | absorption in the gut [3] | brilliance of astrocyte staining (GFAP per unit cell surface) [4] | extent of astrocyte fiber extension [4] | numbers of astrocytes [4] | development and maturation of glial processes [4] | LD50 (rats) | LD50 (mice [5]) | other results |
| --- | --- | --- | --- | --- | --- | --- | --- | --- | --- | --- | --- | --- | --- |
| C[C@]12CC[C@H](O)CC1=CC[C@@H]1[C@@H]2CC[C@]2(C)C(=O)CC[C@@H]12 [DHEA, dehydroepiandrosterone] | reduce the incidence of breast cancer | reduce obesity | known to effect the human complement system | remarkable effects in enhancing the survival of neurons | 10^-7 M | readily absorbed in the gut | remarkable increase | remarkable increase | remarkable increase | enhanced greatly | greater than 10,000 mg/kg | greater than 10,000 mg/kg | apparent age after prolonged administration (mice [1]; prolonged administration): appear to be younger; connections between neurons and between neuronal clusters (NF^+ neurons; 10^-5 M-10^-8 M): Numerous connections appeared to be formed; neuronal clusters (NF^+ neurons; 10^-5 M-10^-8 M): greatly enlarged neuronal clusters; processes of NF^+ neurons (NF^+ neurons; 10^-5 M-10^-8 M): greatly extended, thickened, and intertwined; numbers of NF^+ neurons (NF^+ neurons; 10^-5 M-10^-8 M, by comparison with controls, fixed on 9th day): remarkable increases; brilliance of fluorescence of neurons and their processes (NF protein content) (NF^+ neurons; 10^-5 M-10^-8 M, in contrast to dull signal in controls): in marked contrast to the rather dull fluorescent signal observed in the controls; size of NF^+ neurons (NF^+ neurons; experimental cultures vs controls): larger than those seen in the controls |
| C[C@]12CC[C@H](OS(=O)(=O)O)CC1=CC[C@@H]1[C@@H]2CC[C@]2(C)C(=O)CC[C@@H]12 [DHEAS, dehydroepiandrosterone sulfate] | reduce the incidence of breast cancer | reduce obesity | known to effect the human complement system | remarkable effects in enhancing the survival of neurons | 10^-8 M | readily absorbed in the gut | remarkable increase | remarkable increase | remarkable increase | enhanced greatly | greater than 10,000 mg/kg | greater than 10,000 mg/kg | effects on NF^+ neurons compared with those of DHEA (NF^+ neurons; 10^-4 M to 10^-8 M added): Effects similar to those above; cognitive ability (SDAT patients; 2 patients vs 2 placebo): significant improvements; memory (SDAT patients; 2 patients vs 2 placebo): significant improvements; speech (SDAT patients; 2 patients vs 2 placebo): significant improvements; signs of further SDAT-type deterioration (SDAT patients; placebo patients show continuing deterioration): No signs of further SDAT-type deterioration |
